This note sets out measurements from patent US4075341A, “2-Substituted phenyl-5-triazols [5,1-a] isoquinoline compounds” (Gruppo Lepetit S.p.A., priority 1975, dated 1978).

For orientation: LD50 means the dose expected to kill half of the subjects tested. The ED50 is the dose that gives a 50% effect, or the effect in half of the subjects.

Series [1] can be described thus: acute toxicity LD50 in mice. The note with it: mouse, in vivo, ip; i.p. in mice.
The subject of a further series is conditioned rats. Nature of the series: secondary conditioned avoidance response test (anti-anxiety effect). The series is classed as in vivo. The method, then: The CNS depressant properties were investigated according to the Irwin method, and in particular, the anti-anxiety effect was evaluated on the basis of the secondary conditioned avoidance response test. A specific anti-anxiety effect was evidenced by administering to conditioned rats doses of 15-60 mg./kg. i.p. of representative compounds of the invention.
The following table indicates the ratio of the rats which were deconditioned after administration of a predetermined amount of a representative compound: […]

The next series relates to female beagle dogs. The experiment in a line: anti-fertility activity in pregnant female beagle dogs. The format is in vivo. The following applies: Canis lupus familiaris, sc; single subcutaneous dose on 20th day of pregnancy, opened on 35th day; read-out: Minimal effective doses (100% effectiveness, absence of live fetuses in 100% of the animals). From the text:
In performing experiments with dogs, female beagle dogs weighing approximately 10 kg. are mated and on the 20th day of pregnancy the animals are given single subcutaneous doses of the compounds that were active in both the rat and the hamster. On the 35th day of pregnancy, the animals are surgically opened and the uteri are examined for presence of fetuses, placental tissue etc. Following Table III reports the minimal doses of representative compounds showing a 100% effectiveness (absence of live fetuses in 100% of the animals).

Series [2] concerns female Syrian golden hamsters. Nature of the series: anti-fertility activity in pregnant female Syrian golden hamsters. The series is classed as in vivo. Also on record: key to anti-fertility activity (active according to criteria): active: a reduction of live fetuses in at least 60% of the treated animals and the presence of implantation sites proves the animal to have been pregnant. The note with it: for anti-fertility activity (active according to criteria): 10 mg./kg. s.c. daily for 5 days, days 4-8 of pregnancy, autopsy day 14; for ED50: Mesocricetus auratus, sc, read-out: ED50 (dose showing 100% effectiveness in 50% of the treated animals). The method, then: Representative experiments for assessing anti-fertility activity are carried out with female Syrian golden hamsters weighing 100 to 130 g. The animals are mated and the presence of sperm in the vagina is taken as evidence of mating. The day sperm is detected is considered day one of pregnancy, since in our laboratories and those of other investigators 90 to 100% of animals that mate as evidenced by vaginal sperm are pregnant. Pregnancy is later confirmed at the time of autopsy by presence of fetuses or implantation sites in the uterus. Even if an animal aborts the fetus, implantation scars still remain as evidence that the animal had been pregnant. Test compounds dissolved or suspended in sesame oil are administered subcutaneously in doses of 10 mg./kg. daily for 5 days beginning on day 4 of pregnancy (days 4-8). The animals are autopsied on day 14 of pregnancy and the uteri are examined for evidence of pregnancy (implantation sites, fetal resorptions or live fetuses), hemorrage, and evidence of abnormalities of the uterus, placenta or fetuses. A compound is considered to be active if there is a reduction of live fetuses in at least 60% of the treated animals and the presence of implantation sites proves the animal to have been pregnant. […] The compounds are then studied for dose-activity relationship and toxicity or other biological activities. Compounds that show 100% effectiveness (absence of live fetuses in 100% of animals) with minimal side effects or toxicity are studied in depth.
The ED50 values identify the dose levels which show 100% effectiveness (defined as above) in 50% of the treated animals.

[3] abbreviates: Table I, 5,6-dihydro compounds, hamsters.
The mark [4] stands for this setting: Table II, 5,6-unsaturated compounds, similar experiments.

Read-outs that look alike come from different tables or passages of the source.

In series [1], `N=C(NN1CCc2ccccc2C1=O)c1cccc([N+](=O)[O-])c1` [2-(m-Nitrobenzimidoylamino)-3,4-dihydro-1-(2H) isoquinolinone] registered an LD50 of more than 600 mg/kg. For the same compound, the Deconditioned/treated with conditioned rats (dose 30 mg./kg. i.p.) is 6/10; with conditioned rats (dose 60 mg./kg. i.p.), 10/10. On to `N=C(NN1CCc2ccccc2C1=O)c1ccccc1` [2-Benzimidoylamino-3,4-dihydro-1 (2H)-isoquinolinone], for which the LD50 in series [1] is more than 600 mg/kg. The Deconditioned/treated in the series with conditioned rats (dose 60 mg./kg. i.p.) is 10/10. Consider `CCOC(=O)NC(=S)Nc1nc2n(n1)CCc1ccccc1-2` [2-carbethoxythioureido-5,6-dihydro-s-triazole-[5,1-a]isoquinoline], for which the LD50 in series [1] was more than 600 mg/kg. Further, the Deconditioned/treated in the series with conditioned rats (dose 60 mg./kg. i.p.) was 7/10. On to `COc1cccc(-c2nc3n(n2)CCc2ccccc2-3)c1` [Example 1, 2-(m-Methoxyphenyl)-5,6-dihydro-s-triazolo[5,1-a]isoquinoline], for which, in the series on female beagle dogs, the minimal effective dose was determined as 12.5 mg/kg. Moreover, the “anti-fertility activity (active according to criteria)” value (shortened to “anti-fertility activity”) in series [2] is on record as “active”. In addition, in series [2] (setting [3]), the ED50 is 0.1 mg/kg. As for `Cc1ccccc1-c1nc2n(n1)CCc1ccccc1-2` [Example 2, 2-(o-toluyl)-5,6-dihydro-s-triazolo[5,1-a]isoquinoline, reference compound], the ED50 in series [2] (setting [3]) is more than 10 mg/kg.

Take `Cc1cccc(-c2nc3n(n2)CCc2ccccc2-3)c1` [Example 3, 2-(m-toluyl)-5,6-dihydro-s-triazolo[5,1-a]isoquinoline, reference compound]: in series [2] (setting [3]), the ED50 is more than 10 mg/kg.

As to `Cc1ccc(-c2nc3n(n2)CCc2ccccc2-3)cc1` [Example 4, 2-(p-toluyl)-5,6-dihydro-s-triazolo[5,1-a]isoquinoline, reference compound], the ED50 in series [2] (setting [3]) turned out to be 2 mg/kg. The same measure, in the same setting: next, `c1ccc(-c2nc3n(n2)CCc2ccccc2-3)cc1` [Example 5, 2-phenyl-5,6-dihydro-s-triazolo[5,1-a]isoquinoline, reference compound]: 1 mg/kg. For the compound `Clc1cccc(-c2nc3n(n2)CCc2ccccc2-3)c1` [Example 7, 2-(m-chlorophenyl)-5,6-dihydro-s-triazolo[5,1-a]isoquinoline], in series [2], the “anti-fertility activity” value is “active”. The ED50 in series [2] (setting [3]) was found to be 0.75 mg/kg. On the same counts, the results for `Clc1ccc(-c2nc3n(n2)CCc2ccccc2-3)cc1` [Example 8, 2-(p-chlorophenyl)-5,6-dihydro-s-triazolo[5,1-a]isoquinoline] are “active” and 0.065 mg/kg.

`Cc1nc2n(n1)CCc1ccccc1-2` [Example 9, 2-methyl-5,6-dihydro-s-triazolo[5,1-a]isoquinoline, reference compound]: the ED50 in series [2] (setting [3]) was more than 10 mg/kg.

The compound `c1cncc(-c2nc3n(n2)CCc2ccccc2-3)c1` [Example 10, 2-(3-pyridyl)-5,6-dihydro-s-triazolo[5,1-a]isoquinoline] came in with an LD50 in series [1] of more than 400 mg/kg. For the same compound, the Deconditioned/treated in the series on conditioned rats (dose 15 mg./kg. i.p.) was 10/10. Consider `COc1cc(OC)cc(-c2nc3n(n2)CCc2ccccc2-3)c1` [Example 12, 2-(3,5-dimethoxyphenyl)-5,6-dihydro-s-triazolo[5,1-a]isoquinoline], for which the “anti-fertility activity” value in series [2] is recorded as “active”. Consider `CCOc1cccc(-c2nc3n(n2)CCc2ccccc2-3)c1` [Example 13, 2-(m-ethoxyphenyl)-5,6-dihydro-s-triazolo[5,1-a]isoquinoline], for which, in the series on female beagle dogs, the minimal effective dose was 6.25 mg/kg. In series [2], the “anti-fertility activity” value is listed as “active”. Besides, the ED50 in series [2] (setting [3]) turned out to be 0.03 mg/kg. With `c1ccc(COc2cccc(-c3nc4n(n3)CCc3ccccc3-4)c2)cc1` [Example 15, 2-(m-benzyloxyphenyl)-5,6-dihydro-s-triazolo[5,1-a]isoquinoline], in series [2], the “anti-fertility activity” value is reported as “active”. Still for that read-out and setting: next, `c1ccc2c(c1)CCn1nc(-c3ccc4c(c3)OCO4)nc1-2` [Example 16, 2-(3,4-methylenedioxyphenyl)-5,6-dihydro-s-triazolo[5,1-a]isoquinoline]: “active”.

`Fc1cccc(-c2nc3n(n2)CCc2ccccc2-3)c1` [Example 19, 2-(m-fluorophenyl)-5,6-dihydro-s-triazolo[5,1-a]isoquinoline]: in series [2], the “anti-fertility activity” value is recorded as “active”. Take `CC(C)Oc1cccc(-c2nc3n(n2)CCc2ccccc2-3)c1` [Example 21, 2-(m-isopropoxyphenyl)-5,6-dihydro-s-triazolo[5,1-a]isoquinoline]: the “anti-fertility activity” value in series [2] was “active”. The ED50 in series [2] (setting [3]) turned out to be 0.25 mg/kg.

In the case of `CCCCCOc1cccc(-c2nc3n(n2)CCc2ccccc2-3)c1` [Example 22, 2-(m-pentyloxyphenyl)-5,6-dihydro-s-triazolo[5,1-a]isoquinoline], in series [2], the “anti-fertility activity” value is listed as “active”. Same read-out and setting: next, `c1cc(OC2CCCC2)cc(-c2nc3n(n2)CCc2ccccc2-3)c1` [Example 23, 2-(m-cyclopentyloxyphenyl)-5,6-dihydro-s-triazolo[5,1-a]isoquinoline]: “active”. Regarding `C#CCOc1cccc(-c2nc3n(n2)CCc2ccccc2-3)c1` [Example 25, 2-(m-propargyloxyphenyl)-5,6-dihydro-s-triazolo[5,1-a]isoquinoline], the “anti-fertility activity” value in series [2] is listed as “active”. Besides, the ED50 in series [2] (setting [3]) turned out to be 0.21 mg/kg. Turning to `CN(C)c1ccc(-c2nc3n(n2)CCc2ccccc2-3)cc1` [Example 27, 2-(p-dimethylaaminophenyl)-5,6-dihydro-s-triazolo[5,1-a]isoquinoline], the “anti-fertility activity” value in series [2] is “active”. With `Fc1ccc(-c2nc3n(n2)CCc2ccccc2-3)cc1` [Example 28, 2-(p-fluorophenyl)-5,6-dihydro-s-triazolo[5,1-a]isoquinoline], the “anti-fertility activity” value in series [2] is reported as “active”. In addition, the ED50 in series [2] (setting [3]) came to 0.1 mg/kg. For `CCCCOc1cccc(-c2nc3n(n2)CCc2ccccc2-3)c1` [Example 31, 2-(m-butoxyphenyl)-5,6-dihydro-s-triazolo[5,1-a]isoquinoline], the “anti-fertility activity” value in series [2] is given as “active”. As to `Nc1nc2n(n1)CCc1ccccc1-2` [Example 32], in series [1], the LD50 was more than 600 mg/kg. Also, the Deconditioned/treated in the series with conditioned rats (dose 30 mg./kg. i.p.) is 6/10.

With `CC(=O)N(C(C)=O)c1nc2n(n1)CCc1ccccc1-2` [Example 34, 2-Diacetylamino-5,6-dihydro-s-triazolo[5,1-a]isoquinoline], in series [1], the LD50 is more than 600 mg/kg. For the same compound, the Deconditioned/treated in the series on conditioned rats (dose 60 mg./kg. i.p.) was 6/9. In series [1], `CC(=O)Nc1nc2n(n1)CCc1ccccc1-2` [Example 35, 2-Acetamido-5,6-dihydro-s-triazolo[5,1-a]isoquinoline] displayed an LD50 of more than 400 mg/kg. For the same compound, the Deconditioned/treated in the series on conditioned rats (dose 60 mg./kg. i.p.) is listed as 7/10. Regarding `CN(C)c1cccc(-c2nc3n(n2)CCc2ccccc2-3)c1` [Example 41, 2-(m-Dimethylaminophenyl)-5,6-dihydro-s-triazolo[5,1-a]isoquinoline], in series [2], the “anti-fertility activity” value is “active”. Still for that read-out and setting: next, `Oc1cccc(-c2nc3n(n2)CCc2ccccc2-3)c1` [Example 42, 2-(3-Hydroxyphenyl)-5,6-dihydro-s-triazolo[5,1-a]isoquinoline]: “active”. For the compound `COc1cccc(-c2nc3c4ccccc4ccn3n2)c1` [Example 58, 2-(m-Methoxyphenyl)-s-triazolo[5,1-a]isoquinoline], the “anti-fertility activity” value in series [2] was “active”. The ED50 in series [2] (setting [4]) is 0.1 mg/kg. For the compound `c1ccc(-c2nc3c4ccccc4ccn3n2)cc1` [Example 59, 2-Phenyl-s-triazolo[5,1-a]isoquinoline, reference compound], in series [2] (setting [4]), the ED50 came out at 0.25 mg/kg. For the compound `Clc1ccc(-c2nc3c4ccccc4ccn3n2)cc1` [Example 61, 2-(p-Chlorophenyl)-s-triazolo[5,1-a]isoquinoline], the “anti-fertility activity” value in series [2] is reported as “active”. Further, the ED50 in series [2] (setting [4]) stood at 0.08 mg/kg.
